Several values for one entry are separate records, joined by “and”; a condition that tells them apart may be missing. Equal values may be shown once.
Experiments:
[1] = xn = mol fraction of the nth substance listed; settings: 100 kPa, Liquid; for speed of sound: Sing-around technique in a fixed-path interferometer; for mass density: Vibrating tube method
[2] = 101.33 kPa, Liquid; for speed of sound: Sing-around technique in a fixed-path interferometer; for mass density: Vibrating tube method; for viscosity: Concentric cylinders viscometry
[3] = refractive index (Na D-line) (dimensionless); settings: 101.33 kPa, Liquid, Standard Abbe refractometry

OCCO [1,2-ethanediol] + O
[1]
Settings | mass density, x1 = 0.9886 [kg/m3] | mass density, x1 = 0.9943 [kg/m3] | mass density, x1 = 0.9959 [kg/m3] | speed of sound, x1 = 0.9886 [m/s] | speed of sound, x1 = 0.9943 [m/s] | speed of sound, x1 = 0.9959 [m/s]
283.15 K | 1119.9 | 1120.07 | 1120.11 | 1690.2 | 1689 | 1690.6
288.15 K | 1116.43 | – | – | 1678.4 | 1678.1 | 1678.6
293.15 K | 1112.94 | 1113.11 | 1113.15 | 1666.6 | 1666.3 | 1666.6
298.15 K | 1109.46 | – | – | 1654.7 | 1654.8 | 1654.6
303.15 K | 1105.95 | 1106.11 | 1106.15 | 1643 | 1643 | 1642.7
308.15 K | 1102.43 | – | – | 1631.2 | 1631.3 | 1630.9
313.15 K | 1098.89 | 1099.05 | 1099.1 | 1619.5 | 1619.4 | 1619.1
323.15 K | 1091.75 | 1091.9 | 1091.95 | 1595.7 | 1595.5 | 1595.2
333.15 K | 1084.51 | 1084.67 | 1084.72 | 1571.7 | 1571.5 | 1571.2
343.15 K | 1077.16 | 1077.33 | 1077.37 | 1547.6 | 1547.4 | 1547.1

CCOCCOCCO [3,6-dioxa-1-octanol]
Settings | mass density, [2] | refractive index, [3] | speed of sound, [2] [m/s] | viscosity, [2] [mPa·s]
283.15 K | 997.1 kg/m3 | 1.4311 | 1428.9 | –
288.15 K | 993.9 kg/m3 and 992.6 kg/m3 | 1.42916 | 1410.5 | 5.157
293.15 K | 989.4 kg/m3 and 988.2 kg/m3 | 1.42711 | 1392.6 | 4.466
298.15 K | 983.7 kg/m3 and 984.9 kg/m3 | 1.42501 | 1374.6 | 3.811
303.15 K | 979.3 kg/m3 and 980.4 kg/m3 | 1.4229 | 1356.8 | 3.328
308.15 K | 974.8 kg/m3 and 976 kg/m3 | – | 1339 | 2.933
313.15 K | 970.3 kg/m3 and 971.5 kg/m3 | 1.41887 | 1321.7 | 2.592
318.15 K | 967 kg/m3 | – | – | 2.331
323.15 K | 961.3 kg/m3 and 962.5 kg/m3 | 1.41483 | 1286.9 | 2.099
328.15 K | 958.1 kg/m3 | – | – | 1.901
333.15 K | 952.2 kg/m3 and 953.5 kg/m3 | 1.41082 | 1252.6 | 1.718
338.15 K | 949 kg/m3 | – | – | 1.583
343.15 K | 944.4 kg/m3 and 943.1 kg/m3 | 1.40683 | 1218.9 | 1.456
348.15 K | 939.9 kg/m3 | – | – | 1.343
353.15 K | 935.3 kg/m3 | 1.40276 | – | 1.225
358.15 K | 930.7 kg/m3 | – | – | 1.153
363.15 K | 926.1 kg/m3 | – | – | 1.072
368.15 K | 921.4 kg/m3 | – | – | 0.997
373.15 K | 916.8 kg/m3 | – | – | 0.921

OCCO [1,2-ethanediol]
Settings | mass density, [2] | refractive index, [3] | speed of sound, [2] [m/s] | viscosity, [2] [mPa·s]
283.15 K | 1120.2 kg/m3 | 1.43461 | 1689.9 | –
288.15 K | 1118.2 kg/m3 | 1.43312 | 1678.3 | 26.8
293.15 K | 1114.6 kg/m3 and 1113.3 kg/m3 | 1.43167 | 1666.5 | 21.2
298.15 K | 1111.1 kg/m3 | 1.43 | 1654.7 | 17.13
303.15 K | 1106.3 kg/m3 and 1107.6 kg/m3 | 1.42855 | 1642.9 | 14
308.15 K | 1104.1 kg/m3 | – | 1631.1 | 11.58
313.15 K | 1099.2 kg/m3 and 1100.5 kg/m3 | 1.42562 | 1619.3 | 9.627
318.15 K | 1097 kg/m3 | – | – | 8.182
323.15 K | 1092.1 kg/m3 and 1093.4 kg/m3 | 1.4226 | 1595.5 | 6.98
328.15 K | 1089.8 kg/m3 | – | – | 6.007
333.15 K | 1084.8 kg/m3 and 1086.2 kg/m3 | 1.41955 | 1571.5 | 5.197
338.15 K | 1082.6 kg/m3 | – | – | 4.555
343.15 K | 1078.9 kg/m3 and 1077.5 kg/m3 | 1.41655 | 1547.4 | 4.01
348.15 K | 1075.2 kg/m3 | – | – | 3.552
353.15 K | 1071.5 kg/m3 | 1.41351 | – | 3.161
358.15 K | 1067.8 kg/m3 | – | – | 2.835
363.15 K | 1064 kg/m3 | – | – | 2.552
368.15 K | 1060.2 kg/m3 | – | – | 2.306
373.15 K | 1056.4 kg/m3 | – | – | 2.102

— the NIST ThermoML archive (doi:10.1021/acs.jced.5b00662)
